Experimental data from patent US20100075965A1, “PI3 KINASE INHIBITORS AND METHODS OF THEIR USE” (Novartis AG, priority 2006, published 2010).
Where two headings read alike, the source gives them in different places.

Columns and labels:
human PI3Kγ (GST-p110γ) = biological target: T1, human PI3Kγ (GST-p110γ) (Homo sapiens, UniProt P48736); assay: PI3K scintillation proximity kinase assay, gamma isoform; format: biochemical; conditions: PI3 kinase isoform gamma
T1 construct: Residues 38-1102 of human PI3Kγ are subcloned into the BamH1 and EcoR1 sites of the transfer vector pAcG2T; made in house; host or cells: Sf9 (Spodoptera frugiperda) insect cells, baculovirus
T1 sequence (P48736 38-1102): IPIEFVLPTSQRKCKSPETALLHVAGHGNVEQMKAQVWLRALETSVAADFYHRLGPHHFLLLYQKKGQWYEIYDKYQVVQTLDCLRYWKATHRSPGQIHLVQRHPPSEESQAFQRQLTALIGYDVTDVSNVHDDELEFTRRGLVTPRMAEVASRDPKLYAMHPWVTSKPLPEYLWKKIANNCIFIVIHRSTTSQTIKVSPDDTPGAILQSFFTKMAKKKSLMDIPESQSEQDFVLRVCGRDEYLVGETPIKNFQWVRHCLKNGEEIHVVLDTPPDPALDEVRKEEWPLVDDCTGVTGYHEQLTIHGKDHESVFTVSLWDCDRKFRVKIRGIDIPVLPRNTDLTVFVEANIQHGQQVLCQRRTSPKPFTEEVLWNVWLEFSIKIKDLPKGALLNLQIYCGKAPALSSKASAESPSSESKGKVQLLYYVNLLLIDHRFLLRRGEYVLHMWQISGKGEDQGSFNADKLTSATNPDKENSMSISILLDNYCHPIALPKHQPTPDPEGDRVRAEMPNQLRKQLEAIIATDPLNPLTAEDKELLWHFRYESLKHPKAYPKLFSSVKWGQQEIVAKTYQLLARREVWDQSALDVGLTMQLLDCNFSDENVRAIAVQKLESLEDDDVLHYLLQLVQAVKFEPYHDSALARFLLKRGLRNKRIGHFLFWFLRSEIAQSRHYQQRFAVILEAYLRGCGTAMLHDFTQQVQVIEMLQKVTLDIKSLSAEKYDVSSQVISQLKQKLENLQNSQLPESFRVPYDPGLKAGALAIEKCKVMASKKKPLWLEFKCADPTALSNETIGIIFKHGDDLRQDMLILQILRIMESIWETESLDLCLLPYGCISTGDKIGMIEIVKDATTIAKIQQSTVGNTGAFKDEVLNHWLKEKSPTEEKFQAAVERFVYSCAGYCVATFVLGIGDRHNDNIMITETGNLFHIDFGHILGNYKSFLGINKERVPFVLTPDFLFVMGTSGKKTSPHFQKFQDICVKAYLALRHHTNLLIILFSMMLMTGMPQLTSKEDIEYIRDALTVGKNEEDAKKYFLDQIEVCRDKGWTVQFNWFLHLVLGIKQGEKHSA
Protocol: (§1) Activity of compounds in Table 4, expressed as Ki the dissociation constant for inhibition binding, were determined using the following test procedures.
(§2) Baculovirus expressing different fragments of PI3Kγ fused to GST have been previously described by Stoyanova, S., Bulgarelli-Leva, G., Kirsch, C., Hanck, T., Klinger, R., Wetzker, R., Wymann, M. P. (1997) Lipid- and protein kinase activities of G protein-coupled PI 3-kinase gamma: structure-activity analysis and interactions with wortmannin. Biochem. J., 324:489. Residues 38-1102 of human PI3Kγ are subcloned into the BamH1 and EcoR1 sites of the transfer vector pAcG2T (Pharmingen) to create a GST-P13Kγ lacking the first 37 residues of PI3Kγ. To express the recombinant protein, Sf9 (Spodoptera frugiperda 9) insect cells are routinely maintained at densities between 3×10^5 and 3×10^6 cells/ml in serum containing TNMFH medium (Sigma). Sf9 cells, at a density of 2×10^6 are infected with human GST-PI3γΔ34 baculovirus at a multiplicity of infection (m.o.i.) of 1 for 72 hours. The infected cells are harvested by centrifugation at 1400 g for 4 minutes at 4° C. and the cell pellets are frozen at −80° C. Both Sf9 and Sf21 cells work equally well. […] Cell lysate (supernatant) is added (usually as 50 ml lysate to 1 ml GST resin in 50 ml tubes) and gently rotated on a mixer at 4° C. for 2-3 hours. The unbound flow through sample is collected by centrifugation at 1000 g for 5 minutes at 4° C. using a DENLEY™ centrifuge. The 1 ml GST resin containing bound material is transferred to a 15 ml FALCON™ centrifuge tube for subsequent washing and elution steps. Firstly a series of 3 cycles of washings (mixing by gentle inversion) is performed with 15 ml ice cold wash Buffer A (50 mM Tris-HCl pH 7.5, 1% Triton X-100, 2 mM DTT) interspersed with centrifugation at 1000 g for 5 minutes at 4° C. A final single wash step is performed with 15 ml ice cold wash Buffer B (50 mM Tris-HCl pH 7.5, 2 mM DTT) and then centrifuged at 1000 g for 5 minutes at 4° C. The washed GST resin is finally eluted with 4 cycles of 1 ml ice cold elution buffer (50 mM Tris-HCl pH 7.5, 10 mM reduced glutathione, 2 mM DTT, 150 mM NaCl, 1 mM NaF, 50% ethylene glycol and protease inhibitors) interspersed with centrifugation at 1000 g for 5 minutes at 4° C. Samples are aliquoted and stored at −20° C. The isoforms in Table 4 were similarly purified.
(§3) An in vitro kinase assay was established that measures the transfer of the terminal phosphate of adenosine triphosphate to phosphatidylinositol. The kinase reaction is performed in a white 96 well microtitre plate as a Scintillation Proximity Assay. […] The plate is incubated at room temperature for 60 minutes and the reaction terminated by the adding 150 μl of WGA-bead stop solution (40 mM Tris, 200 mM NaCl, 2 mM EGTA, 1.3 mM ethylene diamine tetraacetic acid (EDTA), 2.6 μM ATP and 0.5 mg of Wheat Germ Agglutinin-SPA beads (Amersham Biosciences) to each well. The plate is sealed, incubated at room temperature for 60 minutes, centrifuged at 1200 rpm and then counted for 1 minute using a scintillation counter. Total activity is determined by adding 10 μl of 5% dimethylsulphoxide (DMSO) and non-specific activity is determined by adding 10 μl 50 mM EDTA in place of the test compound.

PI3 kinase isoform alpha = biological target: T2, PI3 kinase isoform alpha (Homo sapiens, UniProt P42336); assay: PI3K scintillation proximity kinase assay, alpha isoform; format: biochemical
T2 construct: made in house
T2 sequence (P42336 whole entry, canonical isoform): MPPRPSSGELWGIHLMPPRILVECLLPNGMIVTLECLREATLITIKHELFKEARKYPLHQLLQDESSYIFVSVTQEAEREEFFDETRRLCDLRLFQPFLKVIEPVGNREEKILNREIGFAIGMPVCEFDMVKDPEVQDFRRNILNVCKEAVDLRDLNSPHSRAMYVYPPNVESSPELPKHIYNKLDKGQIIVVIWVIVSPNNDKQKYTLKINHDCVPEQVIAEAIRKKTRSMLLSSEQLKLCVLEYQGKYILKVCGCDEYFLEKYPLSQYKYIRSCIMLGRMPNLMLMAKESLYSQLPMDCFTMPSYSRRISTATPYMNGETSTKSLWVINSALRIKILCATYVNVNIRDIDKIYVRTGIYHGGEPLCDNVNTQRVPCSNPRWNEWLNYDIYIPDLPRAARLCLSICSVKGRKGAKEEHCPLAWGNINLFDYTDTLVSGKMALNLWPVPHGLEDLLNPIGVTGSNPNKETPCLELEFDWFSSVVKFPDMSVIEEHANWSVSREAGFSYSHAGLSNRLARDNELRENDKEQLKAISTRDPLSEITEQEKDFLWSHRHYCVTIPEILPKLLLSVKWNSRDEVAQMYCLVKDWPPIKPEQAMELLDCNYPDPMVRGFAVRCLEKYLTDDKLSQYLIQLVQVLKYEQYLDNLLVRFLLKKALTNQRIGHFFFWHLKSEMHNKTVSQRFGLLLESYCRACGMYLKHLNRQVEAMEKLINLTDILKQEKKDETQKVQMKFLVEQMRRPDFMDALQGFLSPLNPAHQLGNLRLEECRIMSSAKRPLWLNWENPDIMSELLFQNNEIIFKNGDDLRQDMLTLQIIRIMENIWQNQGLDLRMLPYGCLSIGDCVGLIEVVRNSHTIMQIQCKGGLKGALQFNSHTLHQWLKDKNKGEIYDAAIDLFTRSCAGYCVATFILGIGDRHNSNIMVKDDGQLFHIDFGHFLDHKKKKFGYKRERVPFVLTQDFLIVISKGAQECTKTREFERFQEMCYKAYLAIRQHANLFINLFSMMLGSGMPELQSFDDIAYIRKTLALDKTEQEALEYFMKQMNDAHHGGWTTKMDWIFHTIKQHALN
Protocol: as §1, §2, §3

PI3 kinase isoform delta = biological target: T3, PI3 kinase isoform delta (Homo sapiens, UniProt O00329); assay: PI3K scintillation proximity kinase assay, delta isoform; format: biochemical
T3 construct: made in house
T3 sequence (O00329 1-1044): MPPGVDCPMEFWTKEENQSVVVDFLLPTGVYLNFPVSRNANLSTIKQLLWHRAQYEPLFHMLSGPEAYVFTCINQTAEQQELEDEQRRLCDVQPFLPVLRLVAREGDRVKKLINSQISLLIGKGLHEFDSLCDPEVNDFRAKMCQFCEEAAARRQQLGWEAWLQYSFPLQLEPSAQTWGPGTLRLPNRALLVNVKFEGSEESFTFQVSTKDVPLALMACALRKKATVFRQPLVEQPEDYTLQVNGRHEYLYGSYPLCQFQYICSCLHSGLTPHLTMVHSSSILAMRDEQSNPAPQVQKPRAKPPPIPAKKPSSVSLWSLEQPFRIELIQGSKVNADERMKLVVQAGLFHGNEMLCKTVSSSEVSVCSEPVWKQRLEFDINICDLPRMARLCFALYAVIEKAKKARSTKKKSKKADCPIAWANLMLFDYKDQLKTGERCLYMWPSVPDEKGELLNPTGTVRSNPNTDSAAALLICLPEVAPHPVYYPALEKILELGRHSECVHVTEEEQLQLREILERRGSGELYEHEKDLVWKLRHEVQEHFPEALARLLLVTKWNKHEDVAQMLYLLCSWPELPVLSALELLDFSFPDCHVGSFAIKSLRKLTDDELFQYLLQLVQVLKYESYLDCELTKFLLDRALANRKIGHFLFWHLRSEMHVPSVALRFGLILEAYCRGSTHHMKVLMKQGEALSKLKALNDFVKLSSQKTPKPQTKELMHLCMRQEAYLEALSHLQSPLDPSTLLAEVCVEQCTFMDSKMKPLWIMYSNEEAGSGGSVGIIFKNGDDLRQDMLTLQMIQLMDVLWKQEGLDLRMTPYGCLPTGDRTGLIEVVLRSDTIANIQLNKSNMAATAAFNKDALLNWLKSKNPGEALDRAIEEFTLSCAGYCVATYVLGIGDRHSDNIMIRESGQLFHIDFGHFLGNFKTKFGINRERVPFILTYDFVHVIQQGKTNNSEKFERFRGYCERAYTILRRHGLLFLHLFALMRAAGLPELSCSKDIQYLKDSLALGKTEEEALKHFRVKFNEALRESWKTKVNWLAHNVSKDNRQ
Protocol: as §1, §2, §3

PI3 kinase isoform beta = biological target: T4, PI3 kinase isoform beta (Homo sapiens, UniProt P42338); assay: PI3K scintillation proximity kinase assay, beta isoform; format: biochemical
T4 construct: made in house
T4 sequence (P42338 whole entry, canonical isoform): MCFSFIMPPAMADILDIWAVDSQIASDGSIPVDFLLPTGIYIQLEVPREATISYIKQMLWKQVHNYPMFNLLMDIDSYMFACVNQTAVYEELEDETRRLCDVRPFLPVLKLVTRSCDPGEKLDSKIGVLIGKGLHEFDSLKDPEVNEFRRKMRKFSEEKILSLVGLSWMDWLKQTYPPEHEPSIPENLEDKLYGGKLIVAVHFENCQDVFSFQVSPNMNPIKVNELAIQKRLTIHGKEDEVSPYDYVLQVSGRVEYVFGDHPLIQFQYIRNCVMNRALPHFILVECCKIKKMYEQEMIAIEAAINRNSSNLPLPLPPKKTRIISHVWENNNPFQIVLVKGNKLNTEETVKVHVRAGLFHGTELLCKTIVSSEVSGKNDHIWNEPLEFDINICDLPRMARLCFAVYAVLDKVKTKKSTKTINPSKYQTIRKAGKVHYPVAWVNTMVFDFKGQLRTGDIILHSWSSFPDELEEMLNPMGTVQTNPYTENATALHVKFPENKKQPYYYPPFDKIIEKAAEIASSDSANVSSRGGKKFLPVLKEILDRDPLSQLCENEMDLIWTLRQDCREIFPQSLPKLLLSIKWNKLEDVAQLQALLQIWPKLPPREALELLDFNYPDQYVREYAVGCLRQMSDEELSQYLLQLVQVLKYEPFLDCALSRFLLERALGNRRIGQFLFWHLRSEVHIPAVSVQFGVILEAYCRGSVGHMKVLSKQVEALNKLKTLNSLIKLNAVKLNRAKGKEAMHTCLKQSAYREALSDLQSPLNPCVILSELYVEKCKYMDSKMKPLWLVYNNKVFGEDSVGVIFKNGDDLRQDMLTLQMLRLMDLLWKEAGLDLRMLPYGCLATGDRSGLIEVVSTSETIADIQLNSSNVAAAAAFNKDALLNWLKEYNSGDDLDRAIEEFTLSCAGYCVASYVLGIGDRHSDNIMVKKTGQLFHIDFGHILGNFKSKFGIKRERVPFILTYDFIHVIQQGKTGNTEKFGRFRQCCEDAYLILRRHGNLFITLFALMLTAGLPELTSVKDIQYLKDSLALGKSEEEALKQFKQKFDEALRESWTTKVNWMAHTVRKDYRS
Protocol: as §1, §2, §3

PI3 K Alpha = PI3 K Alpha (Homo sapiens, UniProt P42336); assay: PI3 kinase phosphorylation assays (homogenous solution phase, one step solid phase, ATP depletion/KinaseGlo); format: biochemical
PI3 K Alpha, sequence (P42336 whole entry): as the sequence (P42336 whole entry, canonical isoform) above
PI3 K Alpha, sequence (P27986 whole entry partner): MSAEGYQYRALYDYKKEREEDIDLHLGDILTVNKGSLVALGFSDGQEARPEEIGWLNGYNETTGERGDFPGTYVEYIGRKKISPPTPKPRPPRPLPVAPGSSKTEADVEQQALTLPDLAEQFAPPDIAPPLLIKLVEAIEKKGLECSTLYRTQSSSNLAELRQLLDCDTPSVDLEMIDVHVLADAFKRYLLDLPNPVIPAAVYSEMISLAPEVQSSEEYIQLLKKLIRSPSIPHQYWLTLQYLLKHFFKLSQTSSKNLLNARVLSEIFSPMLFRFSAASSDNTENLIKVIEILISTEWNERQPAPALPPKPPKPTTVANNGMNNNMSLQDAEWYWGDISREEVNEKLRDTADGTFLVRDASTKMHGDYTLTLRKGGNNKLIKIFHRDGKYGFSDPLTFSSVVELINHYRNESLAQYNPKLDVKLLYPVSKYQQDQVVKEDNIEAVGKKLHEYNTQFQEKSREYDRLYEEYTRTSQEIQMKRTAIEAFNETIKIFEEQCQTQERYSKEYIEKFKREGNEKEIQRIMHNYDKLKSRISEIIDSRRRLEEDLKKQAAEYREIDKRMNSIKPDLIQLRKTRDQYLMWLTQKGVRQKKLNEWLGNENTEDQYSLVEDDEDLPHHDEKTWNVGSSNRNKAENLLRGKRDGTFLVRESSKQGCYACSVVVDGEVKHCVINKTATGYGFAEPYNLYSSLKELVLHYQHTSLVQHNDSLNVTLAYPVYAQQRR

[1] = tested on: pSer473-Akt in A2780 cells; assay: pSer473 Akt assay to monitor PI3K pathway in A2780 cells (MSD); format: cell-based; conditions: Homo sapiens
In short: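 A2780 cells (15,000/well, adhered overnight) treated 1 h at 37 °C with compound, then lysed; pSer473-Akt and total Akt measured by MSD electrochemiluminescence. The pSer473/total Akt ratio gave percent inhibition versus DMSO, from which EC50 was derived.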

A2780 cells = assay: Viability assay in A2780 (Cell Titer Glo); format: cell-based, human; conditions: Homo sapiens
In short: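 A2780 cells (1,000/well, DMEM + 10% FBS) were exposed to 3-fold serial dilutions of compound for 72 hrs at 37° C, 5% CO2. Viable cells were read by Cell Titer Glo luminescence, in duplicate, and EC50 values were derived from the curves.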

[2] = A2780 cells, read-out: A2780 pAKT 473 EC50
[3] = A2780 cells, read-out: A2780 Cell prolif. EC50

SMILES	Ki (human PI3Kγ (GST-p110γ))	Ki (PI3 kinase isoform alpha)	Ki (PI3 kinase isoform delta)	Ki (PI3 kinase isoform beta)	IC50 (PI3 K Alpha; read-out: PI3K Alpha IC50)	EC50 [1, 2]	EC50 (A2780 cells; [3])	other results
CCn1nnc(CCNC(=O)Nc2cn3cc(-c4cnc(N)c(C(F)(F)F)c4)ccc3n2)n1 [Example 3-1, 1-[6-(6-Amino-5-trifluoromethyl-pyridin-3-yl)-imidazo[1,2-a]pyridin-2-yl]-3-[2-(2-ethyl-2H-tetrazol-5-yl)-ethyl]-urea]	< 1000 nM	< 1000 nM	< 1000 nM	< 1000 nM				
CC(C)n1nnc(CCNC(=O)Nc2cn3cc(-c4cnc(N)c(C(F)(F)F)c4)ccc3n2)n1 [Example 3-2, 1-[6-(6-Amino-5-trifluoromethyl-py-ridin-3-yl)-imidazo[1,2-a]pyridin-2-yl]-3-[2-(2-isopropyl-2H-tetrazol-5-yl)-ethyl]-urea]	< 1000 nM	< 1000 nM	< 1000 nM	< 1000 nM				
CC(C)n1nnc(CCNC(=O)Nc2cn3cc(-c4ccc(N)nc4)ccc3n2)n1 [Example 3-3, 1-[6-(6-Amino-pyridin-3-yl)-imidazo[1,2-a]pyridin-2-yl]-3-[2-(2-isopropyl-2H-tetrazol-5-yl)-ethyl]-urea]	< 1000 nM	< 10000 nM	< 1000 nM	< 1000 nM				
CCc1nnn(CCNC(=O)Nc2cn3cc(-c4cnc(N)c(C(F)(F)F)c4)ccc3n2)n1 [Example 3-4, 1-[6-(6-Amino-5-trifluoromethyl-py-ridin-3-yl)-imidazo[1,2-a]pyridin-2-yl]-3-[2-(5-ethyl-tetrazol-2-yl)-ethyl]-urea]	< 1000 nM	< 1000 nM	< 1000 nM	< 1000 nM				
Nc1ncc(-c2ccc3nc(NC(=O)NCCn4nnc(C5CC5)n4)cn3c2)cc1C(F)(F)F [Example 3-5, 1-[6-(6-Amino-5-trifluoromethyl-py-ridin-3-yl)-imidazo[1,2-a]pyridin-2-yl]-3-[2-(5-cyclopropyl-tetrazol-2-yl)-ethyl]-urea]	< 1000 nM	< 1000 nM	< 1000 nM	< 1000 nM				
Nc1ncc(-c2ccc3nc(NC(=O)CCO)cn3c2)cc1C(F)(F)F [Example 205, N-(6-(6-amino-5-(trifluoromethyl)pyridin-3-yl)imidazo[1,2-a]pyridin-2-yl)-3-hydroxypropanamide]					< 1000 nM	< 1000 nM	< 10000 nM	
CCN1CCN(CCCC(=O)Nc2cn3cc(-c4cnc(N)c(C(F)(F)F)c4)ccc3n2)CC1 [Example 206, N-(6-(6-amino-5-(trifluoromethyl)pyridin-3-yl)imidazo[1,2-a]pyridin-2-yl)-4-(4-ethylpiperazin-1-yl)butanamide]					< 1000 nM	< 1000 nM	< 10000 nM	
CC(=O)Nc1cn2cc(-c3cnc(N)c(C)c3)ccc2n1 [Example 208, N-(6-(6-amino-5-methylpyridin-3-yl)imidazo[1,2-a]pyridin-2-yl)acetamide]					< 1000 nM	< 1000 nM	< 10000 nM	
CC(=O)Nc1nc2ccc(-c3cnc(N)c(C(F)(F)F)c3)cn2c1C#CCN1CCOCC1 [Example 213, N-(6-(6-amino-5-(trifluoromethyl)pyridin-3-yl)-3-(3-morpholino-prop-1-ynyl)imidazo[1,2-a]pyridin-2-yl)acetamide]					< 1000 nM	< 10000 nM	< 10000 nM	
NCC(=O)Nc1cn2cc(-c3cnc(N)c(C(F)(F)F)c3)ccc2n1 [Example 215, 2-amino-N-(6-(6-amino-5-(trifluoromethyl)pyridin-3-yl)imidazo[1,2-a]pyridin-2-yl)acetamide]					< 1000 nM	< 10000 nM	< 10000 nM	
CCN(CC)C(=O)c1cc(-c2ccc3nc(NC(C)=O)cn3c2)cnc1N [Example 218, 5-(2-acetamido-imidazo[1,2-a]pyridin-6-yl)-2-amino-N,N-diethyl-nicotinamide]					< 1000 nM	< 1000 nM	< 10000 nM	
CC(=O)Nc1cn2cc(-c3cnc(N)c(C#N)c3)ccc2n1 [Example 235, N-(6-(6-amino-5-cyanopyridin-3-yl)imidazo[1,2-a]pyridin-2-yl)acetamide]					< 1000 nM	< 10000 nM	< 10000 nM	
CC(=O)Nc1nc2ccc(-c3cnc(N)c(C(F)(F)F)c3)cn2c1C#Cc1ccccn1 [Example 241, N-(6-(6-amino-5-(trifluoromethyl)pyridin-3-yl)-3-(pyridin-2-ylethnyl)imi-dazo[1,2-a]pyridin-2-yl)acetamide]								IC50 (PI3 K Alpha): < 1000 nM; EC50 ([1]; A2780, read-out: A2780 pAKT 473 EC50): < 10000 nM; EC50 (A2780 cells; A2780, read-out: A2780 Cell prolif. EC50): < 10000 nM
